pEC50: −log10 of the molar value. Read-outs that look alike come from different tables or passages of the source.
How the values were obtained:
[1] = tested on: normal skin of CD Hairless male rats; format: in vivo, rat
In short: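 Liposomal egg yolk phospholipid photosensitizer given as single i.v. tail-vein bolus at 1, 1.5 and 2 μmol/kg; skin spots irradiated with 532 nm laser (150 mW/cm^2, 150J, 1 cm) at 1, 6, 24, 48, 96 hrs post injection. Value is time of last observed skin response spot.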

[2] = tested on: normal uninjured rat carotid arteries (medial and adventitial cell populations); experiment: In vivo rat carotid artery acellularity after PDT; design: species or system Sprague Dawley rats; settings: for accelularity in rat artery at a four hour treatment point: 4 hrs post administration; for Max % Rat Artery Accelularity: Table 4, 575 nm (Pt 532 nm); for Max % rat Artery Accelularity: Table 3; for Max % Rat Artery Acceluarity: Table 5
In short: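 Metallated photosensitizers light-activated in normal uninjured rat left common carotid via balloon catheter introduced through femoral arteriotomy under isoflurane; excitation 575 nm (Ga, Zn, Al, Sn) or 532 nm (Pt). Arteries harvested 3 days post-treatment, H&E-stained; medial and adventitial cell density assessed by light microscopy.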

[3] = tested on: V79 (Chinese Hamster Lung Fibroblasts) cells; experiment: In vitro cytotoxicity assay (light EC50, Alamar blue); format: cell-based
In short: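 V79 cells in phenol-free 5% FBS/DMEM exposed 24 h to photosensitizer at final 0.01–5.0 μM, six replicates, then washed and light-treated, with a dark plate as control. Survival by Alamar blue after 24 h dark incubation, read at 570/600 nm.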

[4] = Table 4 azaporphyrins, 575 nm (Pt azaporphyrins 532 nm), 1.25 J/cm^2, read-out: In Vitro EC(50)
[5] = drug dose 1 μMol, 50 J/cm^2, 3 days post treatment
[6] = Table 3 porphyrins, 24 h drug incubation, 532 nm, 1.25 J/cm^2, read-out: In Vitro EC50 Light
[7] = Table 5 plant derived gallium porphyrins, light, read-out: In Vitro EC(50)
[8] = Table 3, time of last skin spot observed post injection, 1 μmol, 532 nm laser

| Molecule | Normal skin Response (1 μmol) ([1]; rat, in vivo) [h] | Max % rat Artery Accelularity [2, 5] [%] | pEC50 [3, 6] | further results |
| --- | --- | --- | --- | --- |
| CCC1=C(CC)c2nc1cc1[nH]c(cc3nc(cc4[nH]c(n2)c(CC)c4CC)C(C)=C3CCC(=O)O)c(CCC(=O)O)c1C [M=H2 R1,R3=Et R2,R4=Et R=CO2H] |  |  |  | Normal skin Response (1 μmol) in hrs ([1]; rat, in vivo): None; accelularity in rat artery at a four hour treatment point [2]: 0%; Max % Rat Artery Accelularity ([2]; drug dose 1 μMol): 0%; pEC50 [3, 4]: 6.35 |
| CCC1=C(C)c2cc3[n-]c(cc4nc(cc5[n-]c(cc1n2)c(C)c5CC)C(C)=C4CCC(=O)OCCCCl)c(CCC(=O)OCCCCl)c3C.[Cl-].[Ga+3] [Example 35, Gallium Chloride Mesoporphyrin di (3-chloropropylester)] | 96 | 80 | 6.40 |  |
| CCC1=C(C)c2cc3[n-]c(cc4nc(cc5[n-]c(cc1n2)c(C)c5CCC(=O)OCCF)C(CCC(=O)OCCF)=C4C)c(C)c3CC.[Cl-].[Ga+3] [Example 34, Gallium Chloride Mesoporphyrin di (2-fluoroethylester)] | 24 | 80 | 6.40 |  |
| Tin (IV) Dichloride Mesoporphyrin Dimethyl Ester [Example 32] | 24 | 20 | 5.85 |  |
| C=Cc1c(C)c2cc3nc(c(CC(=O)OC)c4[n-]c(cc5nc(cc1[n-]2)C(C)=C5CC)c(C)c4C(=O)NC)C(CCC(=O)OC)=C3C.[Cl-].[Ga+3] [Example 14, Gallium Chloride Chloroporphyrin e6 Dimethyl Ester 12-methylamide] | 6 |  |  | Max % Rat Artery Acceluarity ([2]; drug dose 1 μMol): 65%; pEC50 [3, 7]: 6.54 |
| Gallium Chloride 8,13-diethyl-3,7,12,17-tetramethylporphyrin-2,18-di(3′-methoxypropyl) [Example 10] | 48 | 75 | 6.40 |  |
| C=CC1=C(C)C2=Cc3c(C=C)c(C)c4[n]3[Sn-2]35([Cl])([Cl])[n]6c(c(C)c(CCC(=O)OC)c6=CC6=[N+]3C(=C4)C(C)=C6CCC(=O)OC)=CC1=[N+]25 [M=Sn R1=V R3=Me R4=V R2=CO2Me] |  | 10 | 5.85 | Normal skin Response (1 μmol) [1, 8]: 24 h |
| CCC1=C(C)C2=[N+]3C1=Cc1c(C)c(CC)c4[n]1[Ga-2]31([Cl])[n]3c(c(C)c(CCC(=O)N(CC)CC)c3=CC3=[N+]1C(=C4)C(C)=C3CCC(=O)N(CC)CC)=C2 [Example 15, Gallium Chloride Mesoporphyrin N,N-diethylamide] | 96 | 60 | 6.35 |  |
| COC(=O)CCC1=C(C)c2cc3[n-]c(cc4nc(cc5[n-]c(cc1n2)c(CCC(=O)OC)c5C)C(CN(C)C)=C4C)c(CN(C)C)c3C.[Ga+3].[OH-] [Example 12, Gallium Hydroxy 3,8-N,N-dimethylaminomethyl deuteroporphyrin dimethyl ester] |  | 50 | 6.30 | Normal skin Response (1 μmol) in hrs ([1]; rat, in vivo): None |
| COC(=O)CCC1=C(C)C2=Cc3c(C)c(CN(C)C)c4[n]3[Pt][n]3c(c(C)c(CCC(=O)OC)c3=CC1=N2)=CC1=NC(=C4)C(C)=C1CN(C)C [Example 41, Platinum 3,8-Bis(dimethylaminomethyl) deuteroporphyrin dimethyl ester] | 48 | 0 | 6.70 |  |
| COC(=O)CCC1=C(C)c2cc3[n-]c(cc4nc(cc5[n-]c(cc1n2)c(CCC(=O)OC)c5C)C(CO)=C4C)c(CO)c3C.[Cl-].[Ga+3] [Example 40, Gallium Chloride 3,8-hydroxymethyl deuteroporphyrin dimethyl ester] |  | 5 | 6.22 | Normal skin Response (1 μmol) [1, 8]: 6 h |
| CC1=Cc2cc3[n-]c(cc4nc(cc5[n-]c(cc1n2)c(C)c5CCCO)C(CCCO)=C4C)cc3C.[Cl-].[Ga+3] [Example 8, Gallium Chloride 8,13-desvinyl-3,7,12,17-tetramethylporphyrin-2,18-di(3′-hydroxypropyl)] | 96 | 80 | 6.40 |  |

More lines, main results first:

| Normal skin Response (1 μmol) ([1]; rat, in vivo) [h] | Molecule | Max % rat Artery Accelularity [2, 5] [%] | pEC50 [3, 6] | further results |
| --- | --- | --- | --- | --- |
| 24 | CCC1=C(CC)C2=[N+]3C1=Nc1c(CC)c(CC)c4[n]1[Ga-2]31([Cl])[n]3c(c(C)c(CCC(=O)O)c3=CC3=[N+]1C(=C4)C(C)=C3CCC(=O)O)=C2 [Example 87, Gallium Chloride 7,8,12,13-tetraethyl-12,17-dimethyl-10-azaporphyrin-2,18-di(propionic acid)] |  |  | accelularity in rat artery at a four hour treatment point [2]: 30%; Max % Rat Artery Accelularity ([2]; drug dose 1 μMol): 30%; pEC50 [3, 4]: 6.51 |
| 6 | CCC1=C(C)C2=[N+]3C1=Cc1c(C)c(CC)c4[n]1[Ga-2]31([OH])[n]3c(c(C)c(CCCNCCCO)c3=CC3=[N+]1C(=C4)C(C)=C3CCCNCCCO)=C2 [Example 78, Gallium Hydroxy 8,13-diethyl-3,7,12,17 tetramethylporphyrin-2,18-di((N-3′-hydoxypropyl)-3-aminopronpyl)] |  | 6.00 | Max % rat Artery Accelularity ([2]; drug dose 2 μMol): 10% |
| 24 | CCOC(=O)CCCCC1=C(C)C2=Cc3c(CC)c(C)c4[n]3[Zn-2]35[n]6c(c(C)c(CCCCC(=O)OCC)c6=CC1=[N+]23)=CC1=[N+]5C(=C4)C(CC)=C1C (stereo not drawn) [Example 55, Zinc 8,13-diethyl-3,7,12,17-tetramethylporphyrin-2,18-di(pentanoic acid ethyl ester)] | 0 | 5.40 |  |
| 24 | CCC1=C(C)C2=[N+]3C1=Cc1c(C)c(CC)c4[n]1[Zn-2]31[n]3c(c(C)c(CCC(=O)N(CC)CC)c3=CC3=[N+]1C(=C4)C(C)=C3CCC(=O)N(CC)CC)=C2 (stereo not drawn) [Example 62, Zinc Mesoporphyrin N,N-diethylamide] | 0 | 5.40 |  |
| 96 | CCC1=C(C)c2cc3[n-]c(cc4nc(cc5[n-]c(cc1n2)c(C)c5CC)C(C)=C4CCCOC)c(CCCOC)c3C.[Cl-].[In+3] [Example 75, Indium Chloride 8,13-diethyl-3,7,12,17-tetramethylporphyrin-2,18-di(3′-methoxypropyl)] | 75 | 7.22 |  |
| 96 | CCC1=C(CC)C2=Nc3c(CC)c(CC)c4[n]3[Sn]([Cl])([Cl])[n]3c(c(C)c(CCC(=O)NC)c3=CC3=NC(=C4)C(C)=C3CCC(=O)NC)=CC1=N2 [Example 90, Tin (IV) Dichloride 7,8,12,13-tetraethyl-12,17-dimethyl-10-azaporphyrin-2,18-di(propionic acid methyl amide)] |  |  | Max % Rat Artery Accelularity ([2]; drug dose 1 μMol): 30%; pEC50 [3, 4]: 6.30 |
| 96 | CCC1=C(C)C2=[N+]3C1=Cc1c(C)c(CC)c4[n]1[Pt-2]31[n]3c(c(C)c(CCC(=O)NC)c3=CC3=[N+]1C(=C4)C(C)=C3CCC(=O)NC)=C2 (stereo not drawn) [Example 60, Platinum Mesoporphyrin N-methylamide] | 25 | 6.92 |  |
| 24 | CCC1=C(C)C2=Cc3c(CC)c(C)c4[n]3[Ga-2]35([Cl])[n]6c(c(C)c(CCC(=O)O)c6=CC6=[N+]3C(=C4)C(C)=C6CCC(=O)O)=CC1=[N+]25 [M=Ga R1=Et R3=Me R4=Et R2=CO2H] | 15 | 5.70 | accelularity in rat artery at a four hour treatment point [2]: 15% |
| 48 | CCC1=C(CC)C2=[N+]3C1=Nc1c(CC)c(CC)c4[n]1[In-2]31([Cl])[n]3c(c(C)c(CCC(=O)OC)c3=CC3=[N+]1C(=C4)C(C)=C3CCC(=O)OC)=C2 [Example 83, Indium Chloride 7,8,12,13-tetraethyl-12,17-dimethyl-10-azaporphyrin-2,18-di(propionic acid methyl ester)] |  |  | Max % Rat Artery Accelularity ([2]; drug dose 1 μMol): 50%; pEC50 [3, 4]: 7.52 |
| 24 | CCC1=C(C)C2=[N+]3C1=Cc1c(C)c(CC)c4[n]1[Sn-2]31([Cl])([Cl])[n]3c(c(C)c(CCC(=O)NC)c3=CC3=[N+]1C(=C4)C(C)=C3CCC(=O)NC)=C2 [Example 58, Tin(IV)dichloride Mesoporphyrin N-methylamide] | 10 | 5.92 |  |
| 6 | Gallium Chloride Rhodoporphyrin Di-methylester [Example 123] |  |  | Max % Rat Artery Acceluarity ([2]; drug dose 1 μMol): 60%; pEC50 [3, 7]: 6.40 |
| 24 | CCOC(=O)CCCC1=C(C)C2=Cc3c(C)c(CC)c4[n]3[Ga-2]35([Cl])[n]6c(c(C)c(CCCC(=O)OCC)c6=CC1=[N+]23)=CC1=[N+]5C(=C4)C(C)=C1CC [M=Ga R1=Et R3=Me R4=Et R2=CH2CO2Et] | 80 | 6.40 |  |
| 6 | CCCOC(=O)CCC1=C(C)c2cc3[n-]c(cc4nc(cc5[n-]c(cc1n2)c(CCC(=O)OCCC)c5C)C=C4C)cc3C.[Cl-].[Ga+3] [Example 122, Gallium Chloride Deuteroporphyrin Di-propylester] | 95 | 6.46 |  |

From patent US6827926B2, “Metallotetrapyrrolic photosensitizing agents for use in photodynamic therapy” (Miravant Pharmaceuticals, Inc., priority 2001, dated 2004)
